The test system of test [1] is Rattus norvegicus. Put plainly: Compound was tested for oral salidiuretic activity (control/drug treatment value) in rats expressed in Na+, mequiv/6 h at a dose of 128 mg/kg; 0.102/0.380. The class given is functional, Urine.
Test [2] concerns the target Beta-1 adrenergic receptor (Homo sapiens) (UniProt P08588). To be noted: Canis lupus familiaris.
Description: Compound was tested for beta-1 adrenergic receptor blocking activity in dogs
In test [3] the target is Beta-2 adrenergic receptor (Canis lupus familiaris) (UniProt P54833).
Description: The compound was tested for beta-2 adrenergic receptor blocking activity in dogs
Test [4] deals with Rattus norvegicus. Put plainly: Compound was tested for oral salidiuretic activity (control/drug treatment value) in rats expressed as urinary output. at a dose of 128 mg/kg; 8.42/6.75. The class given is functional, Urine.
Test [5] deals with Rattus norvegicus. Kind of test: Compound was tested for oral salidiuretic activity (control/drug treatment value) in rats expressed in Na+, mequiv/6 hr at a dose of 128 mg/kg; 0.186/0.243. It counts as functional, Urine.
In test [6] the test system is Rattus norvegicus. Kind of test: Compound was tested for oral salidiuretic activity (control/drug treatment value) in rats expressed as urinary output. at a dose of 128 mg/kg; 8.42/6.25. It counts as functional, Urine.
In test [7] the test system is Rattus norvegicus. Kind of test: Compound was tested for oral salidiuretic activity (control/drug treatment value) in rats expressed in Na+, mequiv/6 hr at a dose of 128 mg/kg; 0.186/0.179. The class given is functional, Urine.
Test [8] concerns Rattus norvegicus. Kind of test: Compound was tested for oral salidiuretic activity (control/drug treatment value) in rats expressed in Na+, mequiv/6 hr at a dose of 128 mg/kg; 0.144/0.470. It counts as functional, Urine.
For test [9], the system named is Rattus norvegicus. Kind of test: Compound was tested for oral salidiuretic activity (control/drug treatment value) in rats expressed as urinary output. at a dose of 128 mg/kg; 6.50/8.47. The class given is functional, Urine.
In test [10] the test system is Rattus norvegicus. Put plainly: Compound was tested for oral salidiuretic activity (control/drug treatment value) in rats expressed in Na+, mequiv/6 hr at a dose of 128 mg/kg; 0.201/1.197. It counts as functional, Urine.
In test [11] the test system is Rattus norvegicus. Put plainly: Compound was tested for oral salidiuretic activity (control/drug treatment value) in rats expressed as urinary output. at a dose of 128 mg/kg; 7.33/13.83. It counts as functional, Urine.
Test [12] relates to Rattus norvegicus. Kind of test: Compound was tested for oral salidiuretic activity (control/drug treatment value) in rats expressed in Na+, mequiv/6 hr at a dose of 128 mg/kg; 0.198/0.885. It counts as functional, Urine.
Test [13] relates to Rattus norvegicus. Kind of test: Compound was tested for oral salidiuretic activity (control/drug treatment value) in rats expressed as urinary output. at a dose of 128 mg/kg; 8.17/12.83. The class given is functional, Urine.
Test [14] concerns Rattus norvegicus. Kind of test: Compound was tested for oral salidiuretic activity (control/drug treatment value) in rats expressed as urinary output. at a dose of 128 mg/kg; 8.72/8.15. The class given is functional, Urine.
Test [15] deals with Rattus norvegicus. Put plainly: Compound was tested for oral salidiuretic activity (control/drug treatment value) in rats expressed in Na+, mequiv/6 hr at a dose of 128 mg/kg; 0.163/0.139. The class given is functional, Urine.
Test [16] relates to Rattus norvegicus. Kind of test: Compound was tested for oral salidiuretic activity (control/drug treatment value) in rats expressed in Na+, mequiv/6 h at a dose of 128 mg/kg; 0.210/0.796. The class given is functional, Urine.
For test [17], the system named is Rattus norvegicus. Kind of test: Compound was tested for oral salidiuretic activity (control/drug treatment value) in rats expressed as urinary output. at a dose of 128 mg/kg; 7.33/10.83. It counts as functional, Urine.

The values below come from ChEMBL document CHEMBL1123539, “[p-[(Thienylcarbonyl)amino]phenoxy]propanolamines derivatives as diuretic and beta-adrenergic receptor blocking agents” (1986).

Each structure is given as a SMILES string. Bounds are passed on as bounds.

Chain of Beta-1 adrenergic receptor (Homo sapiens) (P08588 whole entry, looked up): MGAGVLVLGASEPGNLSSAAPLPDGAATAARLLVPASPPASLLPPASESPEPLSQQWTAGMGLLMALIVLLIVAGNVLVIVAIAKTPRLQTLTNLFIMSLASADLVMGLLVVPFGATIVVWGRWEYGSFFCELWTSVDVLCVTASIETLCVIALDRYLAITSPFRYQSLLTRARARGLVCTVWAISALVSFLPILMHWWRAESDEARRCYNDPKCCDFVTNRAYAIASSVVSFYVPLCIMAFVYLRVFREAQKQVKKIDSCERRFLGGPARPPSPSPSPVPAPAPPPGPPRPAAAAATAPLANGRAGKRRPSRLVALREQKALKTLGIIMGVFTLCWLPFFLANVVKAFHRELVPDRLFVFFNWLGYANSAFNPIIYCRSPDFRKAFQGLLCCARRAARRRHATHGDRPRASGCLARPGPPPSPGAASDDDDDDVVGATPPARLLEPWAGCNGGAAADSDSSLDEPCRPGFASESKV
Chain of Beta-2 adrenergic receptor (Canis lupus familiaris) (P54833 whole entry, looked up): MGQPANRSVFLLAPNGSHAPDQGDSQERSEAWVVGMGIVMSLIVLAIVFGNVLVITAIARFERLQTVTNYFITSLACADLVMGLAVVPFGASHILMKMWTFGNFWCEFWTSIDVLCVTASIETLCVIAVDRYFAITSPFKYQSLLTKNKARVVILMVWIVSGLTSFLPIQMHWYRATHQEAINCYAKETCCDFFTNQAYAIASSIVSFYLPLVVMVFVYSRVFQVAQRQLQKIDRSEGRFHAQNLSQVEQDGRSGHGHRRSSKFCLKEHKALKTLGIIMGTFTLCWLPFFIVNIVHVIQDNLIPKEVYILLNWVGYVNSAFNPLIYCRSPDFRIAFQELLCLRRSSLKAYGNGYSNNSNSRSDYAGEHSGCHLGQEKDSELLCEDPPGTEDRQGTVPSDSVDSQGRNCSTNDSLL

On to `CC(C)(C)NCC(O)COc1ccc(NC(=O)c2cccs2)cc1C#N` (configuration not stated), for which, in test [1], the Activity is listed as 0.102. Also, the figures for the ID50 in [2] and in [3] were 0.022 mg/kg and 0.55 mg/kg, respectively.
In the case of `CCOC(=O)c1cc(NC(=O)Cc2ccsc2)ccc1OCC(O)CNC(C)(C)C` (configuration not stated), the Activity amounted to 8.42 mL in test [4] and 0.186 in test [5]. The ID50 is 0.015 mg/kg in test [2] and 0.38 mg/kg in test [3].
On to `CCOC(=O)c1cc(NC(=O)Cc2cccs2)ccc1OCC(O)CNC(C)(C)C` (configuration not stated), for which the figures for the Activity in [6] and in test [7] were 8.42 mL and 0.186, respectively. Besides, the values for the ID50 in test [2] and in test [3] were 0.004 mg/kg and 0.6 mg/kg, respectively.
On to `CCOC(=O)c1cc(NC(=O)c2ccsc2)ccc1OCC(O)CNC(C)C` (configuration not stated), for which, in [8], the Activity is on record as 0.144. In test [9], this compound registered a treated urinary output of 8.47 mL. The ID50 in test [2] was 0.19 mg/kg; in [3] it was more than 1 mg/kg.
For the compound `CC(C)OC(=O)c1cc(NC(=O)c2cccs2)ccc1OCC(O)CNC(C)(C)C` (configuration not stated), the Activity stood at 0.21 in [10] and 7.33 mL in test [11]. Moreover, the values for the ID50 in [2] and in test [3] were 0.32 mg/kg and more than 1 mg/kg, respectively.
For the compound `COC(=O)c1cc(NC(=O)c2cccs2)ccc1OCC(O)CNC(C)C` (configuration not stated), the Activity was determined as 0.198 in test [12] and 8.17 mL in test [13]. For the same compound, the results for the ID50 in test [2] and in test [3] were 0.25 mg/kg and more than 1 mg/kg, respectively.
For the compound `CCOC(=O)c1cc(NC(=O)Cc2cccs2)ccc1OCC(O)CNC(C)C` (configuration not stated), the treated urinary output in test [14] was 8.15 mL. Also, the Activity in [15] worked out at 0.163.
`CCCOC(=O)c1cc(NC(=O)c2cccs2)ccc1OCC(O)CNC(C)C` (configuration not stated): the Activity in [16] came to 0.21; in test [17], 7.33 mL.
